This note sets out measurements from US6338854B1, “Photoaging skin-care preparation and method of treating wrinkled skin” (Pola Chemical Industries, Inc., priority 1996, dated 2002).

Common to all, as to assay type: in vivo
The test system of data set [1] is wrinkles on the back skin due to photoaging, hairless mice. Briefly: UV wrinkle model amelioration test. Conditions: 9 weeks, 10 mice; for Number of Mice (number) +: +: Wrinkle-ameliorating effect was observed; for Number of Mice (number) ±: ±: Slight wrinkle-ameliorating effect; for Number of Mice (number) −: −: No wrinkle-ameliorating effect. How it is done: UV wrinkle model amelioration tests were conducted with the benzyl ursolate, methoxybenzyl oleanolate, phenylbenzyl betulate, benzoyl oleanolate, methoxybenzoyl betulate, and phenylpropionyl ursolate obtained in the above described Production Examples on hairless mice (5-week old, female) as test animals.
UVB (60 mJ/cm^2) was irradiated to the back skin of each animal of a test group consisting of 10 hairless mice once a day in a frequency of 5 days a week and after 8 weeks formation of wrinkles on the back skin due to photoaging was confirmed. Thereafter, 100 μl of ethanol solutions containing the aromatic compound derivatives of triterpenoid obtained in the Production Examples in concentrations shown in Table 3 were applied thereon once a day in a frequency of 5 days a week. After 9 weeks from the initiation of applying, the degree of ameliorating wrinkles in the skin due to photoaging were evaluated with naked eyes according to the following evaluation criteria.
−: No wrinkle-ameliorating effect was observed.
±: Slight wrinkle-ameliorating effect was observed.
+: Wrinkle-ameliorating effect was observed.
For comparison, ethanol solutions containing of palmitoyl oleanolate or 2-ethylhexyl 2-ethylhexanoyl ursolate in 1% concentration, hitherto used as drugs having a photoaging inhibiting effect, and neat ethanol as a control were applied to hairless mice after UVB irradiation in the same manner as described above and wrinkle-ameliorating effects were evaluated, respectively.

The test system of data set [2] is Hartley guinea pigs. Nature of the data set: Skin irritation test (24 hours' closed patch test). The source says: Skin irritation tests of benzyl ursolate, methoxybenzyl oleanolate, nitrobenzyl betulate, naphthylmethyl ursolate, diphenylmethyl oleanolate, benzoyl oleanolate, methoxybenzoyl betulate, and phenylpropionyl ursolate obtained in the above-described Production Examples were made using Hartley guinea pigs (300 to 500 g, female) as test animals.
For test groups each consisting of 6 guinea pigs, the hair on the back of each guinea pig was removed or shaven and on the hair-removed or shaven portion was applied a plastic adhesive plaster which a cloth patch of 15 mm in diameter impregnated with 50 mg of white vaseline containing a 10% by weight of one of the aromatic compound derivatives of triterpenoid obtained in the Production Examples described above was attached, and then 24 hours' closed patch test was performed. After the closed patch tests were completed, the resulting skin reactions after the removal of the plastic adhesive plasters were evaluated immediately (after 0 hour) and after 24 hours respectively, according to the evaluation criteria below and an average score was calculated based on the results obtained 6 animals in each test group.
(§1) 0: No skin reaction being observed
(§2) 1: Weak or unclearly bordered erythema
(§3) 3: Reaction accompanying edema
(§4) 4: Reaction of ulcer, necrosis, or the like
As a control, the above-described test and evaluation were conducted with only white vaseline.

Data set [3] has as its system Hartley guinea pigs. Nature of the data set: Allergy test (maximization method). The note with it: skin reaction 24 hours after patch removal, scale 0-4.
Excerpt: Allergy tests of benzyl ursolate, methoxybenzyl oleanolate, phenylbenzyl betulate, benzoyl oleanolate, methoxybenzoyl betulate, and phenylpropionyl ursolate obtained in the above-described Production Examples were made using Hartley guinea pigs (300 to 500 g, female) as test animals.
For test groups each consisting of 6 guinea pigs were applied each an aromatic compound derivative of triterpenoid to a concentration of 3 w/v % in olive oil, an aromatic compound derivative of triterpenoid to a concentration of 0.3 w/v % in olive oil, and neat olive oil, respectively, by a maximization method to perform sensitization induction.
Thereafter, in order to induce sufficient immunoresponse, after a grace period of 10 days from the day when the final sensitization was made, there was applied to the back skin of each guinea pig a patch plate having 1.5 cm diameter coated with 100 μl of an aromatic compound derivative of triterpenoid to a concentration of 3 w/v % in olive oil, an aromatic compound derivative of triterpenoid to a concentration of 0.3 w/v % in olive oil, or neat olive oil, and the patch plate was removed after 24 hours. The resulting skin reaction after 24 hours from the removal of the patch plate was evaluated according to the following evaluation criteria and an average score was calculated for each test group.
as §1, §2, §3, §4

The mark [4] stands for this setting: skin reaction 24 hours after plaster removal, 10% by weight in white vaseline, 24 hours' closed patch, average of 6 guinea pigs, scale 0-4.
Setting [5] is: skin reaction immediately after plaster removal, 10% by weight in white vaseline, 24 hours' closed patch, average of 6 guinea pigs, scale 0-4.
[6] abbreviates: 3%-challenge patch, 3 w/v % in olive oil.

As for `CCCCC(CC)COC(=O)[C@]12CC[C@@H](C)[C@H](C)[C@H]1C1=CC[C@@H]3[C@@]4(C)CC[C@H](OC(=O)C(CC)CCCC)C(C)(C)[C@@H]4CC[C@@]3(C)[C@]1(C)CC2` (stereo partly drawn) [2-Ethylhexyl 2-ethylhexanoyl ursolate, 2-ethylhexyl 2-ethylhexanoyl ursolate, reference compound], in data set [1] (1.0 w/v% in ethanol), the “Number of Mice (number) +” value is reported as 6 number, the “Number of Mice (number) ±” value is 4 number and the “Number of Mice (number) −” value was found to be 0 number.
Regarding `CC1(C)CC[C@]2(C(=O)O)CC[C@]3(C)C(=CC[C@@H]4[C@@]5(C)CC[C@H](OC(=O)c6ccccc6)C(C)(C)[C@@H]5CC[C@]43C)[C@@H]2C1` [Benzoyl oleanolate, benzoyl oleanolate], the “Score (Average) After 24 hours” value in data set [2] (setting [4]) was found to be 0. In addition, in data set [2] (setting [5]), the “Score (Average) After 0 hour” value is recorded as 0. Besides, the “Evaluation Score (Average), 3%-induced group” value in data set [3] (0.3%-challenge patch), in data set [3] (setting [6]) and in data set [3] (Olive oil-challenge patch) was 0 throughout. The “Evaluation Score (Average), Olive oil induced group” value in data set [3] (0.3%-challenge patch) and in data set [3] (3%-challenge patch) was 0 each time. Also, the “Evaluation Score (Average), 0.3%-induced group” value in data set [3] (0.3%-sensitized group), in data set [3] (3%-sensitized group) and in data set [3] (Olive oil-sensitized group) was 0 each time. For the same molecule, in data set [1] (0.01 w/v% in ethanol), the “Number of Mice (number) +” value was determined as 6 number. The “Number of Mice (number) ±” value in data set [1] (0.01 w/v% in ethanol) came out at 4 number. For the same molecule, the “Number of Mice (number) −” value in data set [1] (0.01 w/v% in ethanol) amounted to 0 number.
Take `C[C@H]1[C@H](C)CC[C@]2(C(=O)OCc3ccccc3)CC[C@]3(C)C(=CC[C@@H]4[C@@]5(C)CC[C@H](O)C(C)(C)[C@@H]5CC[C@]43C)[C@H]12` [Benzyl ursolate, benzyl ursolate]: the “Score (Average) After 24 hours” value in data set [2] (setting [4]) worked out at 0. Further, the “Score (Average) After 0 hour” value in data set [2] (setting [5]) amounted to 0. In addition, the “Evaluation Score (Average), 3%-induced group” value in data set [3] (0.3%-challenge patch) turned out to be 0; in data set [3] (setting [6]) it was 0.17; in data set [3] (Olive oil-challenge patch), 0. The “Evaluation Score (Average), Olive oil induced group” value in data set [3] (0.3%-challenge patch) stood at 0; in data set [3] (3%-challenge patch), 0.33. The “Evaluation Score (Average), 0.3%-induced group” value in data set [3] (0.3%-sensitized group) worked out at 0.17; in data set [3] (3%-sensitized group), 0; in data set [3] (Olive oil-sensitized group), 0. The “Number of Mice (number) +” value in data set [1] (0.005 w/v% in ethanol, 100 μl once a day 5 days a week) stood at 9 number. In data set [1] (0.005 w/v% in ethanol), the “Number of Mice (number) ±” value stood at 1 number. The “Number of Mice (number) −” value in data set [1] (0.005 w/v% in ethanol) is 0 number.
For the molecule `CC1(C)CC[C@]2(C(=O)OC(c3ccccc3)c3ccccc3)CC[C@]3(C)C(=CC[C@@H]4[C@@]5(C)CC[C@H](O)C(C)(C)[C@@H]5CC[C@]43C)[C@@H]2C1` [Diphenylmethyl oleanolate, diphenylmethyl oleanolate], the “Score (Average) After 24 hours” value in data set [2] (setting [4]) is 0. For the same molecule, the “Score (Average) After 0 hour” value in data set [2] (setting [5]) is on record as 0.
As to `C=C(C)C1CCC2(C(=O)O)CCC3(C)C(CCC4C5(C)CCC(OC(=O)c6ccc(OC)cc6)C(C)(C)C5CCC43C)C12` (stereo not drawn) [Methoxybenzoyl betulate, methoxybenzoyl betulate], in data set [2] (guinea pig, in vivo), the “Score (Average) After 0 hour” value is on record as 0 and the “Score (Average) After 24 hours” value is recorded as 0. In data set [1] (0.01 w/v% in ethanol), the “Number of Mice (number) +” value came out at 8 number, the “Number of Mice (number) ±” value was 2 number and the “Number of Mice (number) −” value was 0 number.
For `COc1ccc(COC(=O)[C@]23CCC(C)(C)C[C@H]2C2=CC[C@@H]4[C@@]5(C)CC[C@H](O)C(C)(C)[C@@H]5CC[C@@]4(C)[C@]2(C)CC3)cc1` [Methoxybenzyl oleanolate, methoxybenzyl oleanolate], the “Score (Average) After 24 hours” value in data set [2] (setting [4]) is reported as 0. Moreover, in data set [2] (setting [5]), the “Score (Average) After 0 hour” value came to 0. Besides, the figures for the “Evaluation Score (Average), 3%-induced group” value in data set [3] (0.3%-challenge patch), in data set [3] (setting [6]) and in data set [3] (Olive oil-challenge patch) were 0, 0.33 and 0.17, respectively. Also, the “Evaluation Score (Average), Olive oil induced group” value in data set [3] (0.3%-challenge patch) and in data set [3] (3%-challenge patch) was 0.17 throughout. Besides, the “Evaluation Score (Average), 0.3%-induced group” value in data set [3] (0.3%-sensitized group) was 0; in data set [3] (3%-sensitized group), 0; in data set [3] (Olive oil-sensitized group), 0.17. The “Number of Mice (number) +” value in data set [1] (0.01 w/v% in ethanol) is 7 number. For the same molecule, the “Number of Mice (number) ±” value in data set [1] (0.01 w/v% in ethanol) amounted to 3 number. Also, the “Number of Mice (number) −” value in data set [1] (0.01 w/v% in ethanol) was found to be 0 number.
As for `C=C(C)C1CCC2(C(=O)OCc3ccc([N+](=O)[O-])cc3)CCC3(C)C(CCC4C5(C)CCC(O)C(C)(C)C5CCC43C)C12` (stereo not drawn) [Nitrobenzyl betulate, nitrobenzyl betulate], in data set [2] (guinea pig, in vivo), the “Score (Average) After 0 hour” value was 0 and the “Score (Average) After 24 hours” value was found to be 0.
On to `CCCCCCCCCCCCCCCC(=O)OC1CCC2(C)C(CCC3(C)C2CC=C2C4CC(C)(C)CCC4(C(=O)O)CCC23C)C1(C)C` (stereo not drawn) [Palmitoyl oleanolate, palmitoyl oleanolate, reference compound], for which, in data set [1] (1.0 w/v% in ethanol), the “Number of Mice (number) +” value was determined as 7 number, the “Number of Mice (number) ±” value is given as 3 number and the “Number of Mice (number) −” value came out at 0 number.
Regarding `C=C(C)C1CCC2(C(=O)OCc3ccc(-c4ccccc4)cc3)CCC3(C)C(CCC4C5(C)CCC(O)C(C)(C)C5CCC43C)C12` (stereo not drawn) [Phenylbenzyl betulate, phenylbenzyl betulate], in data set [1] (0.05 w/v% in ethanol), the “Number of Mice (number) +” value is reported as 8 number, the “Number of Mice (number) ±” value is recorded as 2 number and the “Number of Mice (number) −” value worked out at 0 number.
On to `C[C@H]1[C@H](C)CC[C@]2(C(=O)O)CC[C@]3(C)C(=CC[C@@H]4[C@@]5(C)CC[C@H](OC(=O)CCc6ccccc6)C(C)(C)[C@@H]5CC[C@]43C)[C@H]12` [Phenylpropionyl ursolate, phenylpropionyl ursolate], for which, in data set [2] (setting [4]), the “Score (Average) After 24 hours” value is reported as 0. The “Score (Average) After 0 hour” value in data set [2] (setting [5]) is on record as 0. Further, the “Evaluation Score (Average), 3%-induced group” value amounted to 0.17 in data set [3] (0.3%-challenge patch), 0 in data set [3] (setting [6]) and 0 in data set [3] (Olive oil-challenge patch). The “Evaluation Score (Average), Olive oil induced group” value in data set [3] (0.3%-challenge patch) and in data set [3] (3%-challenge patch) was 0 throughout. The “Evaluation Score (Average), 0.3%-induced group” value in data set [3] (0.3%-sensitized group), in data set [3] (3%-sensitized group) and in data set [3] (Olive oil-sensitized group) was 0 each time. Besides, the “Number of Mice (number) +” value in data set [1] (0.05 w/v% in ethanol) is given as 7 number. For the same molecule, the “Number of Mice (number) ±” value in data set [1] (0.05 w/v% in ethanol) worked out at 3 number. Also, the “Number of Mice (number) −” value in data set [1] (0.05 w/v% in ethanol) is listed as 0 number.
In the case of naphthylmethyl ursolate, in data set [2] (setting [4]), the “Score (Average) After 24 hours” value turned out to be 0. In addition, the “Score (Average) After 0 hour” value in data set [2] (setting [5]) is given as 0.
